Experimental data from US7445897B2, “Sequence variants of multi-drug resistance genes, MDR1 and MRP1, and methods for assessment of drug penetration and disposition” (University of Washington, priority 2004, dated 2008).
Like-named read-outs stand apart in the source and are kept apart here.

Experiments:
MDR1 (G1199A variant) = test: in vitro; settings: human; for EC50 at 72 h: HEK293 cells recombinantly expressing MDR1 G1199A
MDR1 (wild type) [1] = test: Cytotoxic drug sensitivity assay (MTS); assay type: cell-based, human; settings: human, HEK293 cells recombinantly expressing MDR1 wild type
[2] = test system: recombinant MDR1wt LLC-PK1 cells; test: Cytotoxic drug sensitivity assay (3H-thymidine); assay type: cell-based, porcine; settings: for EC50 fold-change from control: MDR1wt vs LLC-PK1 control; for EC50: Sus scrofa, 72 h, MDR1wt LLC-PK1 cells, 3 days with drug
Method: (§1) On the second day of the incubation, 1 μCi of ^3H-thymidine (specific activity: 81.1 Ci/mmole) was added to each well and incubated overnight. Cells were harvested on day 3 with a cell harvester.
(§2) Dose response analysis was performed for doxorubicin, vincristine and vinblastine. […] TRANSEPITHELIAL TRANSPORT

LLC-PK1 control cells [3] = test: Cytotoxic drug sensitivity assay (3H-thymidine); assay type: cell-based, porcine; settings: Sus scrofa, 72 h, 3 days with drug
Method: as §1, §2

[4] = test system: recombinant MDR11199 LLC-PK1 cells; test: Cytotoxic drug sensitivity assay (3H-thymidine); assay type: cell-based, porcine; settings: for EC50 fold-change from control: MDR11199 vs LLC-PK1 control; for EC50: Sus scrofa, 72 h, MDR11199 LLC-PK1 cells, 3 days with drug; for resistance of MDR11199 cells relative to MDR1wt cells: MDR11199 vs MDR1wt, from EC50; for resistance of MDR11199 cells compared with MDR1wt cells: cytotoxicity studies, LLC-PK1
Method: as §1, §2

MDR1 (G1199T variant) = test: Cytotoxic drug sensitivity assay (MTS); assay type: cell-based, human; settings: human, HEK293 cells recombinantly expressing MDR1 G1199T
[5] = test system: HEK negative control cells; test: Cytotoxic drug sensitivity assay (MTS); assay type: cell-based, human; settings: Homo sapiens, 72 h
LLC-PK1 control cells [6] = test system: LLC-PK1 control cells
MDR1 (wild type) [7] = target: MDR1 (wild type) (Homo sapiens, UniProt P08183, G185V/S893A); test: in vitro
LLC-PK1 control cells [8] = test: Intracellular uptake of HIV protease inhibitors; assay type: in vitro ADME, porcine
[9] = van Heeswijk et al. 2001; cited from earlier work
MDR1 (1199A variant) = MDR1 (1199A variant) (Homo sapiens, UniProt P08183, G185V/S400N/S893A); test: Intracellular uptake of HIV protease inhibitors; settings: recombinant LLC-PK1 cells expressing MDR1-1199A
HEK293 control cells = test: Intracellular levels of Rhodamine123 in HEK cells; assay type: cell-based, human
[10] = target: T1, MDR1wt in recombinant HEK cells (Homo sapiens, UniProt P08183, G185V/S893A); test: Intracellular levels of Rhodamine123 in HEK cells; assay type: cell-based
T1 construct: full-length MDR1 cDNA was generated using the high-fidelity protocol developed previously; expressed in transfected cells

[11] = target: T2, MDR1G1199A in recombinant HEK cells (Homo sapiens, UniProt P08183, G185V/S400N/S893A); test: Intracellular levels of Rhodamine123 in HEK cells; assay type: cell-based
T2 construct: full-length MDR1 cDNA was generated using the high-fidelity protocol developed previously; expressed in transfected cells

[12] = target: T3, MDR1G1199T in recombinant HEK cells (Homo sapiens, UniProt P08183, G185V/S400I/S893A); test: Intracellular levels of Rhodamine123 in HEK cells; assay type: cell-based
T3 construct: full-length MDR1 cDNA was generated using the high-fidelity protocol developed previously; expressed in transfected cells

[13] = test system: P-gp (MDR11199, G1199A) in recombinant LLC-PK1 cells; settings: human, LLC-PK1
rMRP1 [14] = target: T4, rMRP1 (Rattus norvegicus, UniProt Q8CG09); test: Calcein efflux in rMRP1-expressing MDCK-II cells; assay type: cell-based; settings: indomethacin 100 μM, MK571 10 μM
T4 construct: expressed in transfected cells
Text: These recombinant cells were derived from MDCK-II epithelial cells that form tight junctions, suitable for transepithelial transport assessment. Several stable clones of epithelial cells that consistently express rMRP1 were constructed, which could be differentiated to form a polarized monolayer for transepithelial flux studies. […] The cells that consistently over-expressed rMRP1 were expanded from a single cell clone and analyzed for MRP1 function.

rMRP1 [15] = target: T4, rMRP1; test: Transepithelial transport in differentiated rMRP1-MDCK cells; assay type: in vitro ADME
Text: These stable recombinant cells can be used to evaluate drug candidates that are either MRP1 substrates or inhibitors, as well as further elucidate MRP1 structure and function.

[16] = HEK MDR1 WT, 72hours, MTS, read-out: EC50 (Mean ± S.D.)
[17] = HEK MDR1 G1199T, 72hours, MTS, read-out: EC50 (Mean ± S.D.)
[18] = HEK Control, 72hours, MTS, read-out: EC50 (Mean ± S.D.)
[19] = protease inhibitor + GF120918 (1 μM)
[20] = 0.5 uM, 30 min load, 30 min efflux

T1 sequence (P08183 whole entry G185V/S893A): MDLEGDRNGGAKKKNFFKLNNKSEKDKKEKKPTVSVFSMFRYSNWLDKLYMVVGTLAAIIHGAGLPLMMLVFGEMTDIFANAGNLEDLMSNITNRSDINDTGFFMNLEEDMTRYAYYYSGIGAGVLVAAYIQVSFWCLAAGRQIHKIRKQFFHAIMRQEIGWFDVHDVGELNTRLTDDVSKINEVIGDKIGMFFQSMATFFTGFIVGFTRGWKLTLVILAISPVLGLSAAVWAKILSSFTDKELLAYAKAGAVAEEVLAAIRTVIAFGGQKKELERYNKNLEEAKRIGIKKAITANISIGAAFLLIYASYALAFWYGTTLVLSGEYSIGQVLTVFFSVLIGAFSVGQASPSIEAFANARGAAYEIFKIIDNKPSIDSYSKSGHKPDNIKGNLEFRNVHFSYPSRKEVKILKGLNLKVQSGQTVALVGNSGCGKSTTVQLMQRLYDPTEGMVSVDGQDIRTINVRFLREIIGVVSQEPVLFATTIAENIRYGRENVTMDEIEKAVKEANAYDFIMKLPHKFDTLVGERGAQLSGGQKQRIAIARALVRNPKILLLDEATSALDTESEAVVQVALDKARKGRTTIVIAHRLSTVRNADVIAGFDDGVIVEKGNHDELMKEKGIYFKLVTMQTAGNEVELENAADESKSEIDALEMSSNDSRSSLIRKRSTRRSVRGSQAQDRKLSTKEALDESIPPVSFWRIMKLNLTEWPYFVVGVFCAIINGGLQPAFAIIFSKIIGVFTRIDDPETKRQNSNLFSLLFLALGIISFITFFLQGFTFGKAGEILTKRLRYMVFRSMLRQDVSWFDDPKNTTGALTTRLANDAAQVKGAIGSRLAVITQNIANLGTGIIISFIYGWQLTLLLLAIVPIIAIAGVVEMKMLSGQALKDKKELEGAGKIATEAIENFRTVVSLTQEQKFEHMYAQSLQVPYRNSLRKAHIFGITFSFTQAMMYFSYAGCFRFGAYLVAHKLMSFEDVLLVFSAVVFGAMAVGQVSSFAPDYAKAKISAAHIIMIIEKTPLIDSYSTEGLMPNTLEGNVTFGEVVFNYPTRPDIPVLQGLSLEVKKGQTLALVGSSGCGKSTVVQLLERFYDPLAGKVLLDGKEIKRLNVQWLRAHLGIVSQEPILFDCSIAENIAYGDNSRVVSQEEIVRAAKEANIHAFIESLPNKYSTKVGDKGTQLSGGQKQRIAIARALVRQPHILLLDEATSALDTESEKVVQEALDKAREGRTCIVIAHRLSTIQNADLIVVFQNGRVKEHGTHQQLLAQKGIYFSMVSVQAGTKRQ
T4 sequence (Q8CG09 whole entry): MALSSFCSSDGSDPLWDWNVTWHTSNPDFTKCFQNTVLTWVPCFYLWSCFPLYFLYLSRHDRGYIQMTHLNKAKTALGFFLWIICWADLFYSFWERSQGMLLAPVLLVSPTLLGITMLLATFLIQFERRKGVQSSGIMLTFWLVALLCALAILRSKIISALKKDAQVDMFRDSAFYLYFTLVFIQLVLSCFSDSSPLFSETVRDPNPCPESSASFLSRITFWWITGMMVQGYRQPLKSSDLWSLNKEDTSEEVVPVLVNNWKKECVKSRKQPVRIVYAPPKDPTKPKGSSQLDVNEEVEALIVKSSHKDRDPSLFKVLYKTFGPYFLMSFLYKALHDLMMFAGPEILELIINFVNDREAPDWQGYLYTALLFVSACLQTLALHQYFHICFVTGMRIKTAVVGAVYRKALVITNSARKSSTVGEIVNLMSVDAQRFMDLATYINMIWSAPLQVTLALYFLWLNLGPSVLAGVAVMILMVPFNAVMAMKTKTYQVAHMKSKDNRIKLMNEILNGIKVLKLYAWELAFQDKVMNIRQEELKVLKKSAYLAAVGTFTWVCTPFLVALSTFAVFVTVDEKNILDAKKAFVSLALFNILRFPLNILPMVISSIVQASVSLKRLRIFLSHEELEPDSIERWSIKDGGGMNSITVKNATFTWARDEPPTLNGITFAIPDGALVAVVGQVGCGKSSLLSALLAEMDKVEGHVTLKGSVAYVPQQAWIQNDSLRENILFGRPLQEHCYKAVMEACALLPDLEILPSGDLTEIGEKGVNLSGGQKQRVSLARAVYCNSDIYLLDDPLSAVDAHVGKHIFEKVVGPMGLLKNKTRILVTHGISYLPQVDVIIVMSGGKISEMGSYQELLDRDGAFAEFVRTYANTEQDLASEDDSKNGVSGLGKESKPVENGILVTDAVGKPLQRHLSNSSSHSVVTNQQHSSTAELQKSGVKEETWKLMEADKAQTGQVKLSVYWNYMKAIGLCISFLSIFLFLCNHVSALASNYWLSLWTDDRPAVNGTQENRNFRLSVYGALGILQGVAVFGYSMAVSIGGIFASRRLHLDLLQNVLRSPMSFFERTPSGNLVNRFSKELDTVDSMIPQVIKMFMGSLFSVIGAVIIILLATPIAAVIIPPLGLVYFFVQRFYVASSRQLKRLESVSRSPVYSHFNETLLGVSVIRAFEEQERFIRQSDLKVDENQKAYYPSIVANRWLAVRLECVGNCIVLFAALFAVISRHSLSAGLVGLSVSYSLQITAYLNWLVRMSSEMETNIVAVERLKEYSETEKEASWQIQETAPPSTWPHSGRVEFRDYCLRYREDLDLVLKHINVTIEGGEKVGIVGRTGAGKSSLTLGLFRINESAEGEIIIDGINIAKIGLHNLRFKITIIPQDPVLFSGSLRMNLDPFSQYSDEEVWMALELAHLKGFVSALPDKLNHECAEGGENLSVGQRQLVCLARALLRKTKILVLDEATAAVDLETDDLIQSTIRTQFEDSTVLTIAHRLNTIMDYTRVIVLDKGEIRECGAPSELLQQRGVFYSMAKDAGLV
T2 sequence (P08183 whole entry G185V/S400N/S893A): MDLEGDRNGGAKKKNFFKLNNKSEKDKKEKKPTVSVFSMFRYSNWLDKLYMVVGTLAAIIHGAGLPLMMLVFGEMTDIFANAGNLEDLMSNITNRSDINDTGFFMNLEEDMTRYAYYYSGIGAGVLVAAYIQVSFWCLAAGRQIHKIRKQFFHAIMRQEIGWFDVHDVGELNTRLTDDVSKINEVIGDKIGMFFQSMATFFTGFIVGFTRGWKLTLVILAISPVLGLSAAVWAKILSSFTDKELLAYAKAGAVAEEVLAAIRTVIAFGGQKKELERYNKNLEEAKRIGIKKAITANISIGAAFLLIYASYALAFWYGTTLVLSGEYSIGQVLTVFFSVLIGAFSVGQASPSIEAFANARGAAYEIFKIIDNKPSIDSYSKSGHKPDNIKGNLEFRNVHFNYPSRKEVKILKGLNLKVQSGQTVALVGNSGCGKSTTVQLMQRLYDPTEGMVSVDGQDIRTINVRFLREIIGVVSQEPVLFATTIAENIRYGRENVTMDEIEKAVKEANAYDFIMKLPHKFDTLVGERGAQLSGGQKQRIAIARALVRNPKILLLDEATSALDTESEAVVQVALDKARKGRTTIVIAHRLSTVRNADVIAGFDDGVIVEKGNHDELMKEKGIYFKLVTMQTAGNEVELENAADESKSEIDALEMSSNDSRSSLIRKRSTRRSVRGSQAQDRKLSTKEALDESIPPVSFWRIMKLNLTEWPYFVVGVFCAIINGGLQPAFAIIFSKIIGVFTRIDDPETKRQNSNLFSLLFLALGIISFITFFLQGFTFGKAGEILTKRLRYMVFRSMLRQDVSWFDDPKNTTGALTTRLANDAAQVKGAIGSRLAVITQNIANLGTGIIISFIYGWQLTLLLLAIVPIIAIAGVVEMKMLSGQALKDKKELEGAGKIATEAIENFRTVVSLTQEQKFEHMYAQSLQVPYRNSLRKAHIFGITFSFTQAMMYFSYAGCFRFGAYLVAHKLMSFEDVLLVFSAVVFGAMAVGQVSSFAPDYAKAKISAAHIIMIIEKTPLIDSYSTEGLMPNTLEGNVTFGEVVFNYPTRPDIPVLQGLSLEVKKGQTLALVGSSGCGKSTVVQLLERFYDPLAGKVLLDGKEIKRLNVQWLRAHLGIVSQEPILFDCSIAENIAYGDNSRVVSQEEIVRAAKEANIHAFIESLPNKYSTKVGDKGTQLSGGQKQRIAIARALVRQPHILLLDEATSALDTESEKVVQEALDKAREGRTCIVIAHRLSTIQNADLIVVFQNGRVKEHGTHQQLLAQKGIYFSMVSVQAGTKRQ

## COc1cccc2c1C(=O)c1c(O)c3c(c(O)c1C2=O)C[C@@](O)(C(=O)CO)C[C@@H]3O[C@H]1C[C@H](N)[C@H](O)[C@H](C)O1 [doxorubicin]
MDR1 (G1199A variant)
  EC50: 2180 ± 361 nM
MDR1 (wild type) [1]; [16]
  EC50 at 72 h: 1110 ± 112 nM
[2]
  EC50 fold-change from control: 4.53 fold
  EC50: 155 ± 68 nM
LLC-PK1 control cells [3]
  EC50: 34.2 ± 3.1 nM
[4]
  EC50 fold-change from control: 3.51 fold
  EC50: 120 ± 32 nM
MDR1 (G1199T variant); [17]
  EC50 at 72 h: 383 ± 39 nM
[5]; [18]
  EC50: 45.5 ± 25.1 nM

## CC(C)CN(C[C@@H](O)[C@H](Cc1ccccc1)NC(=O)O[C@H]1CCOC1)S(=O)(=O)c1ccc(N)cc1 [amprenavir]
LLC-PK1 control cells [6]; [19]
  Rate of transfer dQ/dt ± s.d., A → B: 10.8 ± 0.9
  Rate of transfer dQ/dt ± s.d., B → A: 10.2 ± 0.4
LLC-PK1 control cells [6]; protease inhibitor alone, 5 μM
  Rate of transfer dQ/dt ± s.d., A → B: 9.33 ± 0.46
  Rate of transfer dQ/dt ± s.d., B → A: 11.6 ± 0.8
MDR1 (wild type) [7]
  Km: 10.2 µM
LLC-PK1 control cells [8]
  Km: 0.25 µM
  Vmax: 0.048 pmole/min*10^6 cells
[9]
  oral bioavailability in systemic circulation: 35-90%
MDR1 (1199A variant)
  Km: 1 µM

## CC[C@]1(O)C[C@H]2CN(CCc3c([nH]c4ccccc34)[C@@](C(=O)OC)(c3cc4c(cc3OC)N(C=O)[C@H]3[C@@](O)(C(=O)OC)[C@H](OC(C)=O)[C@]5(CC)C=CCN6CC[C@]43[C@@H]65)C2)C1 [vincristine]
MDR1 (G1199A variant)
  EC50 at 72 h: 860 ± 51.8 nM
MDR1 (G1199A variant); EC50 for cell growth inhibition, HEK - MDR1 G1199A, 0 month, 72 hours
  EC50 at 72 h: 683 ± 276 nM
MDR1 (G1199A variant); EC50 for cell growth inhibition, HEK - MDR1 G1199A, 1 months, 72 hours
  EC50 at 72 h: 667 ± 87.5 nM
MDR1 (G1199A variant); EC50 for cell growth inhibition, HEK - MDR1 G1199A, 2 months, 72 hours
  EC50 at 72 h: 860 ± 51.8 nM
MDR1 (wild type) [1]; HEK - MDR1 WT, 0 month, 72 hours, read-out: EC50 for cell growth inhibition
  EC50 at 72 h: 494 ± 115 nM
MDR1 (wild type) [1]; HEK - MDR1 WT, 1 months, 72 hours, read-out: EC50 for cell growth inhibition
  EC50 at 72 h: 512 ± 85.1 nM
MDR1 (wild type) [1]; HEK - MDR1 WT, 2 months, 72 hours, read-out: EC50 for cell growth inhibition
  EC50 at 72 h: 710 ± 33.3 nM
MDR1 (wild type) [1]; [16]
  EC50 at 72 h: 710 ± 33.3 nM
[2]
  EC50 fold-change from control: 3.19 fold
  EC50: 1.18 ± 0.56 nM
LLC-PK1 control cells [3]
  EC50: 0.37 ± 0.12 nM
[4]
  EC50 fold-change from control: 9.23 fold
  resistance of MDR11199 cells relative to MDR1wt cells: ~2.9 fold
  EC50: 3.41 ± 1.47 nM
  resistance of MDR11199 cells compared with MDR1wt cells: more resistant
MDR1 (G1199T variant); HEK - MDR1 G1199T, 0 month, 72 hours, read-out: EC50 for cell growth inhibition
  EC50 at 72 h: 246 ± 84 nM
[5]; [18]
  EC50: 10.2 ± 1.04 nM
[5]; HEK negative control, 0 month, 72 hours, read-out: EC50 for cell growth inhibition
  EC50: 4.01 ± 1.29 nM
[5]; HEK negative control, 1 months, 72 hours, read-out: EC50 for cell growth inhibition
  EC50: 6.68 ± 0.448 nM
[5]; HEK negative control, 2 months, 72 hours, read-out: EC50 for cell growth inhibition
  EC50: 10.2 ± 1.04 nM

## Cc1c(O)cccc1C(=O)N[C@@H](CSc1ccccc1)[C@H](O)CN1C[C@H]2CCCC[C@H]2C[C@H]1C(=O)NC(C)(C)C [nelfinavir]
[9]
  oral bioavailability in systemic circulation: 70-80%

## Rhodamine-123 [R123]
HEK293 control cells
  % of control: 100%
HEK293 control cells; [20]
  Intracellular Rhodamine: 4.66 ± 0.14 Unit/mg protein
[10]; [20]
  Intracellular Rhodamine: 2.26 ± 0.06 Unit/mg protein
[10]; converted to HEK293
  % of control: 220%
[11]; [20]
  Intracellular Rhodamine: 1.44 ± 0.12 Unit/mg protein
[11]; converted to HEK293
  % of control: 340%
[12]; [20]
  Intracellular Rhodamine: 1.82 ± 0.17 Unit/mg protein
[12]; converted to HEK293
  % of control: 260%

## Cc1cccc(C)c1OCC(=O)N[C@@H](Cc1ccccc1)[C@@H](O)C[C@H](Cc1ccccc1)NC(=O)[C@H](C(C)C)N1CCCNC1=O [lopinavir]
LLC-PK1 control cells [6]; [19]
  Rate of transfer dQ/dt ± s.d., A → B: 8.48 ± 0.16
LLC-PK1 control cells [6]; protease inhibitor alone, 5 μM
  Rate of transfer dQ/dt ± s.d., A → B: 9.21 ± 0.24
[13]
  decrease in apical-to-basolateral flux in MDR11199 cells compared to MDR1wt cells: 1.6 fold

## CC(C)c1nc(CN(C)C(=O)N[C@H](C(=O)N[C@@H](Cc2ccccc2)C[C@H](O)[C@H](Cc2ccccc2)NC(=O)OCc2cncs2)C(C)C)cs1 [ritonavir]
LLC-PK1 control cells [6]; [19]
  Rate of transfer dQ/dt ± s.d., A → B: 6.46 ± 0.69
  Rate of transfer dQ/dt ± s.d., B → A: 9.60 ± 0.75
LLC-PK1 control cells [6]; protease inhibitor alone, 5 μM
  Rate of transfer dQ/dt ± s.d., A → B: 6.46 ± 0.94
  Rate of transfer dQ/dt ± s.d., B → A: 11.0 ± 0.5
LLC-PK1 control cells [8]
  Km: 0.25 µM
[13]
  decrease in apical-to-basolateral flux in MDR11199 cells compared to MDR1wt cells: 2.3 fold
  increase in basolateral-to-apical efflux in MDR11199 cells compared to MDR1wt: 1.2 fold
[9]
  oral bioavailability in systemic circulation: 60-80%

## COc1ccc2c(c1)c(CC(=O)O)c(C)n2C(=O)c1ccc(Cl)cc1 [indomethacin]
rMRP1 [14]
  effect of MRP1 inhibitor on calcein efflux: suppressed efflux transport of calcein back to the control level

## CC(C)(C)NC(=O)[C@@H]1CN(Cc2cccnc2)CCN1C[C@@H](O)C[C@@H](Cc1ccccc1)C(=O)N[C@H]1c2ccccc2C[C@H]1O [indinavir]
LLC-PK1 control cells [6]; [19]
  Rate of transfer dQ/dt ± s.d., A → B: 4.26 ± 0.25
  Rate of transfer dQ/dt ± s.d., B → A: 5.99 ± 0.11
LLC-PK1 control cells [6]; protease inhibitor alone, 5 μM
  Rate of transfer dQ/dt ± s.d., A → B: 7.17 ± 0.03
  Rate of transfer dQ/dt ± s.d., B → A: 6.69 ± 0.21
[13]
  decrease in apical-to-basolateral flux in MDR11199 cells compared to MDR1wt cells: 1.9 fold
[9]
  oral bioavailability in systemic circulation: 70%

## CC[C@]1(O)C[C@@H]2CN(CCc3c([nH]c4ccccc34)[C@@](C(=O)OC)(c3cc4c(cc3OC)N(C)[C@H]3[C@@](O)(C(=O)OC)[C@H](OC(C)=O)[C@]5(CC)C=CCN6CC[C@]43[C@@H]65)C2)C1 [vinblastine]
rMRP1 [15]
  directional transepithelial transport: exhibit directional transepithelial transport
MDR1 (G1199A variant)
  EC50: 243 ± 15.1 nM
MDR1 (wild type) [1]; [16]
  EC50 at 72 h: 127 ± 13 nM
[2]
  EC50 fold-change from control: 2.14 fold
  EC50: 1.41 ± 0.51 nM
LLC-PK1 control cells [3]
  EC50: 0.66 ± 0.22 nM
[4]
  EC50 fold-change from control: 23.8 fold
  resistance of MDR11199 cells relative to MDR1wt cells: about 11 fold
  EC50: 15.7 nM
  resistance of MDR11199 cells compared with MDR1wt cells: more resistant
MDR1 (G1199T variant); [17]
  EC50 at 72 h: 54.7 ± 7.99 nM
[5]; [18]
  EC50: 1.45 ± 0.23 nM

## CC(=O)O[C@H]1C(=O)[C@@]2(C)[C@H]([C@H](OC(=O)c3ccccc3)[C@]3(O)C[C@H](OC(=O)[C@H](O)[C@@H](NC(=O)c4ccccc4)c4ccccc4)C(C)=C1C3(C)C)[C@]1(OC(C)=O)CO[C@@H]1C[C@@H]2O [paclitaxel]
MDR1 (wild type) [1]; [16]
  EC50 at 72 h: 128 ± 50 nM
MDR1 (G1199T variant); [17]
  EC50 at 72 h: 42.7 ± 12.7 nM
[5]; [18]
  EC50: 2.67 ± 0.13 nM
